Measured values from patent US10167299B2, “1-(3-aminopropyl) substituted cyclic amine compounds, preparation method therefor, and pharmaceutical compositions and uses thereof” (SHANGHAI INSTITUTE OF MATERIA MEDICA, CHINESE ACADEMY OF …, priority 2013, dated 2019).
Converted amounts (≈) assume the structure as drawn. Read-outs that look alike come from different tables or passages of the source.

What was measured:
HIV-1SF162 virus strain = assay: Inhibition activity on TZM-bl cells infected with HIV-1SF162; settings: for EC50: Human immunodeficiency virus 1, TZM-bl; for therapeutic index (TI): TZM-bl cells infected with HIV-1SF162
CCR5 = CCR5 (Homo sapiens (Human), UniProt P51681); assay: Calcium flux inhibition experiment; format: cell-based; settings: for IC50: HEK293/CCR5-Gα16 cell line, calcium flux, read-out: CCR5 IC50; for calcium influx inhibition effect in words, versus positive control compounds: conclusion from Table 1
Chain of CCR5 (P51681 whole entry): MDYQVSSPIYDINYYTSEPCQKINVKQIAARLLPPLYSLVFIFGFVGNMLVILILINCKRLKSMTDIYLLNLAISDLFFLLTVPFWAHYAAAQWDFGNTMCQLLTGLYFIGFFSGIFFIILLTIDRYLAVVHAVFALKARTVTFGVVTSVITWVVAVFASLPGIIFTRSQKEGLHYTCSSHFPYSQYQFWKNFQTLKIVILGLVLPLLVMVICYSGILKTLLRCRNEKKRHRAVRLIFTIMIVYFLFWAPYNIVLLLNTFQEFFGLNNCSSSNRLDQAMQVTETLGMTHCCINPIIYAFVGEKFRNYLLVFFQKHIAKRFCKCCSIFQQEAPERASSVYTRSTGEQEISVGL

[1] = Cytotoxicity (CC50) in TZM-bl cells; format: cell-based; settings: human
[2] = TZM-bl cells (Table 3), read-out: CC50

Row | Compound | EC50 (HIV-1SF162 virus strain) | therapeutic index (TI) (HIV-1SF162 virus strain) | IC50 (CCR5) | CC50 [1] | calcium influx inhibition effect in words, versus positive control compounds (CCR5) | CC50 [1, 2]
1 | CC(=O)N[C@@H](CCN1C2CCC1CC(n1c(C)nc3c1CCN(C(=O)C(C)C)C3)C2)c1nccs1 (stereo partly drawn) [Compound 121, N-{(1S)-3-[(3-endo)-3-(5-isobutyryl-2-methyl-4,5,6,7-tetrahydro-1H-imidazo[4,5-c]pyridin-1-yl)-8-azabicyclo[3.2.1]octane-8-yl]-1-(thiazol-2-yl)-propyl}acetamide] | 0.328 µg/mL (≈ 0.658 µM) | >386.37 | 32.3 nM | > 200 µg/mL | – | –
2 | Cc1nnc(C(C)C)n1C1CC2CCC(C1)N2CC[C@H](NC(=O)C1CCCCC1)c1ccc(F)nc1 (stereo partly drawn) [Compound 35] | > 40 µg/mL | – | 270 nM | > 200 µg/mL | – | –
3 | COC(=O)N1CCc2c(nc(C)n2C2CC3CCC(C2)N3CC[C@H](NC(C)=O)c2ccc(F)s2)C1 (stereo partly drawn) [Compound 133, Methyl 1-{(endo)-8-[(S)-3-acetamido-3-(5-fluorothiophen-2-yl)-propyl]-8-azabicyclo[3.2.1]octan-3-yl}-2-methyl-1,4,6,7-tetrahydro-5H-imidazo[4,5-c]pyridine-5-carboxylate] | 0.152 µg/mL (≈ 0.302 µM) | >1313.56 | 1.78 nM | > 200 µg/mL | better than the positive control compounds | –
4 | COC(=O)N1CCc2c(nc(C)n2C2CC3CCC(C2)N3CC[C@H](NC(C)=O)c2nccs2)C1 (stereo partly drawn) [Compound 119, Methyl 1-{(endo)-8-[(S)-3-acetamido-3-(thiazol-2-yl)-propyl]-8-azabicyclo[3.2.1]octan-3-yl}-2-methyl-1,4,6,7-tetrahydro-5H-imidazo[4,5-c]pyridine-5-carboxylate] | 0.738 µg/mL (≈ 1.52 µM) | >270.84 | 4.77 nM | > 200 µg/mL | better than the positive control compounds | –
5 | COC(=O)N1CCc2c(nc(C)n2C2CC3CCC(C2)N3CC[C@H](NC(C)=O)c2ccc(Cl)s2)C1 (stereo partly drawn) [Compound 126, Methyl 1-{(endo)-8-[(S)-3-acetamido-3-(5-chlorothiophen-2-yl)-propyl]-8-azabicyclo[3.2.1]octan-3-yl}-2-methyl-1,4,6,7-tetrahydro-5H-imidazo[4,5-c]pyridine-5-carboxylate] | 0.091 µg/mL (≈ 0.175 µM) | >2207.68 | 22 nM | > 200 µg/mL | – | –
6 | CCCC(=O)N1CCc2c(nc(C)n2C2CC3CCC(C2)N3CC[C@H](NC(C)=O)c2ccc(Cl)s2)C1 (stereo partly drawn) [Compound 128, N-{(1S)-3-[(3-endo)-3-(5-n-butyryl-2-methyl-4,5,6,7-tetrahydro-1H-imidazo[4,5-c]pyridin-1-yl)-8-azabicyclo[3.2.1]octane-8-yl]-1-(5-chlorothiophen-2-yl)-propyl}acetamide] | 0.174 µg/mL (≈ 0.327 µM) | >1150.82 | 17.5 nM | > 200 µg/mL | – | –
7 | CC(=O)N[C@@H](CCN1C2CCC1CC(n1c(C)nc3c1CCN(C(C)=O)C3)C2)c1ccc(Cl)s1 (stereo partly drawn) [Compound 125, N-{(1S)-3-[(3-endo)-3-(5-acetyl-2-methyl-4,5,6,7-tetrahydro-1H-imidazo[4,5-c]pyridin-1-yl)-8-azabicyclo[3.2.1]octane-8-yl]-1-(5-chlorothiophen-2-yl)-propyl}acetamide] | 0.286 µg/mL (≈ 0.567 µM) | >699.27 | 12.2 nM | > 200 µg/mL | – | –
8 | Cc1ccc([C@H](CCN2C3CCC2CC(n2c(C)nnc2C(C)C)C3)NC(=O)C2CCCC2)s1 (stereo partly drawn) [Compound 31, N-[(1S)-3-[exo-3-(3-isopropyl-5-methyl-4H-1,2,4-triazol-4-yl)-8-azabicyclo[3.2.1]octane-8-yl]-1-(5-methylthiophen-2-yl)propyl]cyclopentane-1-carboxamide] | 0.033 µg/mL (≈ 0.0682 µM) | >5714.29 | 9.76 nM | > 200 µg/mL | comparable to the positive control compounds | –
9 | Cc1ccc([C@H](CCN2C3CCC2CC(n2c(C)nnc2C(C)C)C3)NC(=O)c2ccccc2)s1 (stereo partly drawn) [Compound 32, N-[(1S)-3-[exo-3-(3-isopropyl-5-methyl-4H-1,2,4-triazol-4-yl)-8-azabicyclo[3.2.1]octane-8-yl]-1-(5-methylthiophen-2-yl)propyl]benzamide] | > 40 µg/mL | – | 8.35 nM | > 200 µg/mL | comparable to the positive control compounds | –
10 | Cc1nnc(C(C)C)n1C1CC2CCC(C1)N2CC[C@H](NC(=O)C1CCCC1)c1ccc(F)nc1 (stereo partly drawn) [Compound 36] | > 40 µg/mL | – | 31.8 nM | – | – | > 200 µg/mL
11 | CCCC(=O)N1CCc2c(nc(C)n2C2CC3CCC(C2)N3CC[C@H](NC(C)=O)c2ccc(F)s2)C1 (stereo partly drawn) [Compound 136, N-{(1S)-3-[(3-endo)-3-(5-n-butyryl-2-methyl-4,5,6,7-tetrahydro-1H-imidazo[4,5-c]pyridin-1-yl)-8-azabicyclo[3.2.1]octane-8-yl]-1-(5-fluorothiophen-2-yl)-propyl}acetamide] | 0.011 µg/mL (≈ 0.0213 µM) | >4834.51 | 22.1 nM | – | – | > 200 µg/mL
12 | Cc1nnc(C(C)C)n1C1CC2CCC(C1)N2CC[C@H](NC(=O)C1CCCC1)c1ccc(F)s1 (stereo partly drawn) [Compound 39, N-[(1S)-3-[exo-3-(3-isopropyl-5-methyl-4H-1,2,4-triazol-4-yl)-8-azabicyclo[3.2.1]octane-8-yl]-1-(5-fluorothiophen-2-yl)propyl]cyclopentane-1-carboxamide] | 1.02 µg/mL (≈ 2.09 µM) | >196.08 | 1.41 nM | – | better than the positive control compounds | > 200 µg/mL
13 | CC(=O)N[C@@H](CCN1C2CCC1CC(n1c(C)nc3c1CCN(C(=O)C1CC1)C3)C2)c1ccc(Cl)s1 (stereo partly drawn) [Compound 130, N-{(1S)-3-[(3-endo)-3-(5-cyclopropionyl-2-methyl-4,5,6,7-tetrahydro-1H-imidazo[4,5-c]pyridin-1-yl)-8-azabicyclo[3.2.1]octane-8-yl]-1-(5-chlorothiophen-2-yl)-propyl}acetamide] | 0.053 µg/mL (≈ 0.1 µM) | >2562.98 | 18.5 nM | > 200 µg/mL | – | –
14 | CCC(=O)N1CCc2c(nc(C)n2C2CC3CCC(C2)N3CC[C@H](NC(C)=O)c2nccs2)C1 (stereo partly drawn) [Compound 120, N-{(1S)-3-[(3-endo)-3-(5-propionyl-2-methyl-4,5,6,7-tetrahydro-1H-imidazo[4,5-c]pyridin-1-yl)-8-azabicyclo[3.2.1]octane-8-yl]-1-(thiazol-2-yl)-propyl}acetamide] | 0.831 µg/mL (≈ 1.71 µM) | >240.76 | 27.7 nM | > 200 µg/mL | – | –
15 | CC(=O)N[C@@H](CCN1C2CCC1CC(n1c(C)nc3c1CCN(C(=O)C1CC1)C3)C2)c1nccs1 (stereo partly drawn) [Compound 122, N-{(1S)-3-[(3-endo)-3-(5-cyclopropionyl-2-methyl-4,5,6,7-tetrahydro-1H-imidazo[4,5-c]pyridin-1-yl)-8-azabicyclo[3.2.1]octane-8-yl]-1-(thiazol-2-yl)-propyl}acetamide] | 0.69 µg/mL (≈ 1.39 µM) | >290.06 | 24.5 nM | > 200 µg/mL | – | –
16 | CCC(=O)N1CCc2c(nc(C)n2C2CC3CCC(C2)N3CC[C@H](NC(C)=O)c2ccc(Cl)s2)C1 (stereo partly drawn) [Compound 127, N-{(1S)-3-[(3-endo)-3-(5-propionyl-2-methyl-4,5,6,7-tetrahydro-1H-imidazo[4,5-c]pyridin-1-yl)-8-azabicyclo[3.2.1]octane-8-yl]-1-(5-chlorothiophen-2-yl)-propyl}acetamide] | 0.145 µg/mL (≈ 0.28 µM) | >1379.94 | 22.9 nM | – | – | > 200 µg/mL
17 | Cc1nnc(C(C)C)n1C1CC2CCC(C1)N2CC[C@H](NC(=O)C1CCCCC1)c1ccc(F)s1 (stereo partly drawn) [Compound 38, N-[(1S)-3-[exo-3-(3-isopropyl-5-methyl-4H-1,2,4-triazol-4-yl)-8-azabicyclo[3.2.1]octane-8-yl]-1-(5-fluorothiophen-2-yl)propyl]cyclohexane-1-carboxamide] | 2.61 µg/mL (≈ 5.2 µM) | >73.64 | 9.33 nM | > 200 µg/mL | comparable to the positive control compounds | –
18 | CCC(=O)N1CCc2c(nc(C)n2C2CC3CCC(C2)N3CC[C@H](NC(C)=O)c2ccc(F)s2)C1 (stereo partly drawn) [Compound 134, N-{(1S)-3-[(3-endo)-3-(5-propionyl-2-methyl-4,5,6,7-tetrahydro-1H-imidazo[4,5-c]pyridin-1-yl)-8-azabicyclo[3.2.1]octane-8-yl]-1-(5-fluorothiophen-2-yl)-propyl}acetamide] | 0.113 µg/mL (≈ 0.225 µM) | >1772.41 | 22.1 nM | > 200 µg/mL | – | –
19 | CC(=O)N[C@@H](CCN1C2CCC1CC(n1c(C)nc3c1CCN(C(=O)C1CC1)C3)C2)c1ccc(F)s1 (stereo partly drawn) [Compound 132, N-{(1S)-3-[(3-endo)-3-(5-cyclopropionyl-2-methyl-4,5,6,7-tetrahydro-1H-imidazo[4,5-c]pyridin-1-yl)-8-azabicyclo[3.2.1]octane-8-yl]-1-(5-fluorothiophen-2-yl)-propyl}acetamide] | 0.097 µg/mL (≈ 0.189 µM) | >2063.25 | 22.2 nM | – | – | > 200 µg/mL
20 | CC(=O)N[C@@H](CCN1C2CCC1CC(n1c(C)nc3c1CCN(C(=O)C(C)C)C3)C2)c1ccc(Cl)s1 (stereo partly drawn) [Compound 129, N-{(1S)-3-[(3-endo)-3-(5-isobutyryl-2-methyl-4,5,6,7-tetrahydro-1H-imidazo[4,5-c]pyridin-1-yl)-8-azabicyclo[3.2.1]octane-8-yl]-1-(5-chlorothiophen-2-yl)-propyl}acetamide] | 0.072 µg/mL (≈ 0.135 µM) | >1526.72 | 14.2 nM | > 200 µg/mL | – | –
21 | Cc1ccc([C@H](CCN2C3CCC2CC(n2c(C)nnc2C(C)C)C3)NC(=O)C2CCCCC2)s1 (stereo partly drawn) [Compound 30, N-[(1S)-3-[exo-3-(3-isopropyl-5-methyl-4H-1,2,4-triazol-4-yl)-8-azabicyclo[3.2.1]octane-8-yl]-1-(5-methylthiophen-2-yl)propyl]cyclohexane-1-carboxamide] | 0.06 µg/mL (≈ 0.121 µM) | >2150.54 | 24 nM | > 200 µg/mL | – | –
